Reference: patent US6723751B1, “Crystalline forms of the sodium salt of 5-chloro-2-methoxy-N-(2-(4-methoxy-3-methylaminothiocarbonylaminosulfonylpenyl)ethyl)benzamide” (Aventis Pharma Deutschland GmbH, priority 1999, dated 2004)

What was measured:
[1] = Solubility investigations in water; format: physicochemical; details: for Total amount of substance that could be dissolved: in 2 ml of water at 20° C. to 25° C.; for Time to go into solution: portions of 50 to 100 mg stirred into 2.0 ml of water at room temperature
Description: The substance was introduced with stirring into 2.0 ml of water at room temperature in portions of 50 to 100 mg. It went into solution in the course of a few minutes with initial clumping. In this way, a total of up to 500 mg of substance could be dissolved in 2 ml of water at 20° C to 25° C.
100 mg of the substance were introduced into 2.0 ml of water, a readily stirrable suspension being formed. […] On warming the suspension to 35° C. to 37° C., the substance went into solution within 20 minutes.
The substance was introduced with stirring into 2.0 ml of water at room temperature in portions of 50 to 100 mg. After introduction, the substance was initially present as a granular, readily stirrable solid that then went into solution in the course of a few minutes. In this way, a total of up to 360 mg of substance could be dissolved in 2 ml of water at 20° C. to 25° C.
The substance was introduced with stirring into 2.0 ml of water at room temperature in portions of 50 to 100 mg. It went into solution in the course of a few minutes with initial clumping. In this way, a total of up to 620 mg of substance could be dissolved in 2 ml of water at 20° C. to 25° C.

[2] = Hygroscopicity investigations: water vapor sorption (DVS-1 Dynamic Vapour Sorption Analyser); format: physicochemical; details: 25° C., equilibrium
Description: The water vapor sorption of the crystal modifications according to the invention was investigated at a temperature of 25° C. on substance samples of about 12 to 16 mg using a DVS-1 Dynamic Vapour Sorption Analyser from Surface Measurement Systems. The measurements were carried out in a nitrogen atmosphere whose relative humidity was altered stepwise. The weight of the sample was recorded at each relative humidity after establishment of the equilibrium, which is when a change in weight of the sample no longer took place. For a series of increasing relative humidities, the water contents of the substance samples, which were determined from the change in weight compared with the starting weights, are indicated in percent.

CNC(=S)[N-]S(=O)(=O)c1cc(CCNC(=O)c2cc(Cl)ccc2OC)ccc1OC.[Na+] [Crystal Modification 1, sodium salt of 5-chloro-2-methoxy-N-(2-(4-methoxy-3-methylaminothiocarbonylaminosulfonylphenyl)ethyl)benzamide]
Total amount of substance that could be dissolved [1]: up to 500 mg
Time to go into solution [1]: a few minutes
Water content ([2]; relative humidity 18.4 %): 0.30%
Water content ([2]; relative humidity 39.6 %): 0.65%
Water content ([2]; relative humidity 61.0 %): 1.39%
Water content ([2]; relative humidity 81.1 %): 2.04%
Water content ([2]; relative humidity 91.0 %): 5.72%

CNC(=S)[N-]S(=O)(=O)c1cc(CCNC(=O)c2cc(Cl)ccc2OC)ccc1OC.[Na+] [Crystal Modification 2, sodium salt of 5-chloro-2-methoxy-N-(2-(4-methoxy-3-methylaminothiocarbonylaminosulfonylphenyl)ethyl)benzamide]
State of solution on cooling ([1]; 100 mg in 2.0 ml of water, cooled from 35° C. to 37° C. to 20° C. to 25° C.): remained clearly dissolved
Time to go into solution on warming ([1]; 100 mg in 2.0 ml of water, suspension warmed to 35° C. to 37° C.): ≤ 20 min
Dissolution of 100 mg in 2.0 ml of water ([1]; after stirring at 20° C. to 25° C. for 2 h): a clear solution was still not formed
Water content ([2]; relative humidity 18.5 %): 0.04%
Water content ([2]; relative humidity 39.9 %): 0.06%
Water content ([2]; relative humidity 61.5 %): 0.08%
Water content ([2]; relative humidity 81.9 %): 0.10%
Water content ([2]; relative humidity 91.7 %): 0.13%

CNC(=S)[N-]S(=O)(=O)c1cc(CCNC(=O)c2cc(Cl)ccc2OC)ccc1OC.[Na+] [Crystal Modification 3, sodium salt of 5-chloro-2-methoxy-N-(2-(4-methoxy-3-methylaminothiocarbonylaminosulfonylphenyl)ethyl)benzamide]
Total amount of substance that could be dissolved [1]: up to 360 mg
Time to go into solution [1]: a few minutes
Water content ([2]; relative humidity 18.7 %): 0.06%
Water content ([2]; relative humidity 40.1 %): 0.21%
Water content ([2]; relative humidity 61.4 %): 0.38%
Water content ([2]; relative humidity 81.3 %): 0.65%
Water content ([2]; relative humidity 91.0 %): 0.79%

CNC(=S)[N-]S(=O)(=O)c1cc(CCNC(=O)c2cc(Cl)ccc2OC)ccc1OC.[Na+] [Crystal Modification 4, sodium salt of 5-chloro-2-methoxy-N-(2-(4-methoxy-3-methylaminothiocarbonylaminosulfonylphenyl)ethyl)benzamide]
Total amount of substance that could be dissolved [1]: up to 620 mg
Time to go into solution [1]: a few minutes
